Experimental findings from patent US20220175761A1, “BI-LIGAND DRUG CONJUGATE AND USE THEREOF” (COHERENT BIOPHARMA (SUZHOU), LIMITED, priority 2019, published 2022) are described below.

In test [1] the test system is LNCaP human prostate cancer cells. As to the kind of experiment: Cell binding and endocytosis by flow cytometry. It counts as cell-based. Particulars: 8 nmol/L, 37° C., 15-90 minutes, compared with DU145 and NCI-H460. On the procedure:
(§1) Sample information: Cy5-pep-20AK and Cy5-pep-20BK Cell lines: LNCaP human prostate cancer cells, Du145 human prostate cancer cells, SKOV3 human ovarian cancer cells and NCI-H460 human lung cancer cells
(§2) (1) Cell culture: the cells were digested with trypsin, collected and counted, and then the cells were added to several culture flasks containing a complete medium; the culture flasks were placed in an incubator at 37° C., 5% CO2 for culturing the cells, and finally about 5×10^6 cells were collected into a centrifuge tube. […]
(§3) (3) Washing and loading: the working solution was removed by centrifugation at 1000 rpm for 5 minutes, and the cells were washed 3 times with PBS, and an appropriate amount of PBS was added to suspend the cells to 1×10^6 cells/ml; Beckman CytoFLEX flow cytometer was turned on in advance to complete the startup cleaning process; and the cell samples were loaded successively, and the fluorescence of 10,000 living cells was read in the APC channel; all operations were performed avoiding light exposure.
(§4) (4) Data analysis: the absolute MFI (mean fluorescence intensity) of the APC fluorescence of each cell sample and the relative MFI of the relative blank control were obtained, and a data line graph was completed according to the relative MFI.
On the technique in general: In flow cytometry, cells or beads pass a laser one at a time.

The test system of test [2] is SKOV3 human ovarian cancer cells. The test is described as follows: Cell binding and endocytosis by flow cytometry. It counts as cell-based. The conditions noted are these: 8 nmol/L, 37° C., 15-90 minutes, compared with DU145 and NCI-H460. As for the experimental part: as §1, §2, §3, §4
Test [3] deals with CFPAC-1 (human pancreatic cancer cells). The test is described as follows: Inhibition of cell line proliferation, CCK8. It counts as cell-based. Particulars: CFPAC-1, 68-72 hours, CCK8. On the procedure: Experimental operations: PANC-1 and CFPAC-1 cells were prepared in advance, counted, and plated in 96-well cell culture plates at a cell density of 4×10^4 cells/ml (100 μl/well); negative control and blank control wells were set on each plate. After adherent cell culture overnight, the diluted samples to be tested were added at 50 μl/well. The plates were placed in an incubator at 37° C., 5% CO2 and cultured for 68-72 hours. To each well, 15 μl (10% of the liquid volume in a well) of a color developing solution from CCK8 was added; and the plates were incubated at 37° C. for 45-70 minutes and each plate was read at 450 nm on a microplate reader. The data was edited using SoftMax Pro and a 4-P fitting curve was plotted.
(§5) Experimental operations: LNCaP, SK-BR-3, NCI-H226, CFPAC-1 and PANC-1 cells were prepared in advance and counted; with a culture medium (IMDM+10% FBS+1× L-Glutamine+1×P/S), the cells LNCaP, SK-BR-3 and CFPAC-1 were diluted to 4×10^4 cells/ml, NCI-H226 was diluted to 2.0×10^4 cells/ml and PANC-1 was diluted to 3.0×10^4 cells/ml; the diluted cell solution was plated in 96-well plates at 100 μl/well; and negative control and blank control wells were set on each plate. After adherent cell culture overnight, the diluted samples to be tested were added at 50 μl/well. The plates were placed in an incubator at 37° C., 5% CO2 and cultured for 68-72 hours. To each well, 15 μl (10% of the liquid volume in a well) of a color developing solution from CCK8 was added; and the plates were incubated at 37° C. for 45-70 minutes and each plate was read at 450 nm on a microplate reader. The data was edited using SoftMax Pro and a 4-P fitting curve was plotted.
(§6) Experimental Operations: LNCaP, SK-BR-3, MDA-MB-468 and CFPAC-1 cells were prepared in advance and counted; with a culture medium (IMDM+10% FBS+1× L-Glutamine+1×P/S), the cells LNCaP, SK-BR-3, MDA-MB-468 and CFPAC-1 were diluted to 4×10^4 cells/ml; the diluted cell solution was plated in 96-well plates at 100 µl/well; and negative control and blank control wells were set on each plate. After adherent cell culture overnight, the diluted samples to be tested were added at 50 μl/well. The plates were placed in an incubator at 37° C., 5% CO2 and cultured for 68-72 hours. To each well, 15 μl (10% of the liquid volume in a well) of a color developing solution from CCK8 was added; and the plates were incubated at 37° C. for 45-70 minutes and each plate was read at 450 nm on a microplate reader. The data was edited using SoftMax Pro and a 4-P fitting curve was plotted.
as §6, with “Operations: LNCaP, MDA-MB-468, CFPAC-1 and PANC-1” for “Operations: LNCaP, SK-BR-3, MDA-MB-468 and CFPAC-1”, “CFPAC-1 and PANC-1 cells were” for “MDA-MB-468 and CFPAC-1 cells were”, “cells LNCaP, MDA-MB-468 and” for “cells LNCaP, SK-BR-3, MDA-MB-468 and”, “to 4×10^4 cells/ml, and PANC-1 was diluted to 3.0×10^4 cells/ml; the” for “to 4×10^4 cells/ml; the”, “at 100 μl/well; and negative” for “at 100 µl/well; and negative”
Experimental operations: NCI-H226, CFPAC-1 and MDA-MB-468 cells were prepared in advance and counted; MDA-MB-468 and CFPAC-1 cells were plated at a density of 2×10^4 cells/ml (100 μl/well) and NCI-H226 cells were plated at a density of 1×10^4 cells/ml (100 μl/well) in 96-well plates; and negative control and blank control wells were set on each plate. After adherent cell culture overnight, the diluted samples to be tested were added at 50 μl/well. The plates were placed in an incubator at 37° C., 5% CO2 and cultured for 68-72 hours. […]

Test [4] deals with SCLC-21H. As to the kind of experiment: Tumor growth inhibition of CR19428 in subcutaneous xenograft model (CDX). It counts as in vivo, BALB/c-nude mice. On the procedure: (§7) Experimental scheme: The tumor tissue mass were prepared and subcutaneously inoculated into the anterior right flank of BALB/c-nude mice. When the tumor volume expanded to 80-160 mm^3, a randomized grouping was performed, and a model control group and administration groups were set. The mice were administrated from the first day of grouping, wherein the administration dose was adjusted according to the latest weight measurement. The mice were administrated via tail vein injection at an administration volume of 10 μl/g and twice a week for consecutive 3 weeks. After grouping and administration, the effects of tumor growth and treatment on normal behaviors of animals, specifically including the activity of experimental animals, food intake and drinking status, weight gain or loss status, and other abnormal conditions in eyes, hair, etc., were monitored. After grouping and administration, the weight of mice was measured twice a week to calculate the rate of weight change; at the same time, the long diameter and short diameter of the tumor were measured with a vernier caliper, and the tumor volume, relative tumor proliferation rate, tumor volume inhibition rate and other indicators were calculated. The formula of tumor volume is TV=0.5 a×b^2, wherein a is the long diameter of a tumor and b is the short diameter of a tumor.

Test [5] concerns CALU-3. The test is described as above. In kind it is in vivo, BALB/c-nude mice. As for the experimental part:
as §7

For test [6], the system named is SPC-A1. The description is as above. It counts as in vivo, BALB/c-nude mice. The conditions noted are these: for TGI: SPC-Al. As for the experimental part: as §7
Test [7] relates to NCI-H226 (human lung cancer cells). As to the kind of experiment: Inhibition of cell line proliferation, CCK8. It counts as cell-based. The conditions noted are these: NCI-H226, 68-72 hours, CCK8. As for the experimental part:
as §5
(§8) Experimental operations: NCI-H226, CFPAC-1 and MDA-MB-468 cells were prepared in advance and counted; MDA-MB-468 and CFPAC-1 cells were plated at a density of 2×10^4 cells/ml (100 μl/well) and NCI-H226 cells were plated at a density of 1×10^4 cells/ml (100 μl/well) in 96-well plates; and negative control and blank control wells were set on each plate. After adherent cell culture overnight, the diluted samples to be tested were added at 50 μl/well. The plates were placed in an incubator at 37° C., 5% CO2 and cultured for 68-72 hours. To each well, 15 μl (10% of the liquid volume in a well) of a color developing solution from CCK8 was added; and the plates were incubated at 37° C. for 45-70 minutes and each plate was read at 450 nm on a microplate reader. The data was edited using SoftMax Pro and a 4-P fitting curve was plotted.

The subject of test [8] is MDA-MB-468 (human breast cancer cells). As to the kind of experiment: Inhibition of cell line proliferation, CCK8. In kind it is cell-based. Particulars: MDA-MB-468, 68-72 hours, CCK8. On the procedure: as §6
as §6, with “Operations: LNCaP, MDA-MB-468, CFPAC-1 and PANC-1” for “Operations: LNCaP, SK-BR-3, MDA-MB-468 and CFPAC-1”, “CFPAC-1 and PANC-1 cells were” for “MDA-MB-468 and CFPAC-1 cells were”, “cells LNCaP, MDA-MB-468 and” for “cells LNCaP, SK-BR-3, MDA-MB-468 and”, “to 4×10^4 cells/ml, and PANC-1 was diluted to 3.0×10^4 cells/ml; the” for “to 4×10^4 cells/ml; the”, “at 100 μl/well; and negative” for “at 100 µl/well; and negative”
as §8

In the case of `CC1(C)C(/C=C/C=C/C=C2\N(CCCCCC(=O)NCCCCC(NC(=O)[C@H](CCCCN)NC(=O)[C@H](CC(=O)O)NC(=O)[C@H](CC(=O)O)NC(=O)Cc3ccc(CNC(=O)NCCCC[C@H](NC(=O)N[C@@H](CCC(=O)O)C(=O)O)C(=O)O)cc3)C(N)=O)c3ccc(S(=O)(=O)[O-])cc3C2(C)C)=[N+](CCCS(=O)(=O)O)c2ccc(S(=O)(=O)O)cc21` (stereo partly drawn) [Cy5-pep-20AK], the “binding and endocytosis (fluorescence intensity)” value in test [1] was “high level of binding and endocytosis”; in test [2], “moderate level of binding and endocytosis”.
Take `CC[C@@]1(O)C(=O)OCc2c1cc1n(c2=O)Cc2c-1nc1cc(F)c(C)c3c1c2[C@@H](NC(=O)COCNC(=O)CNC(=O)[C@H](Cc1ccccc1)NC(=O)CNC(=O)CNC(=O)CCCCCN1C(=O)CC(SC[C@H](NC(=O)[C@H](CCCCN)NC(=O)[C@H](CC(=O)O)NC(=O)[C@H](CC(=O)O)NC(=O)Cc2ccc(CNC(=O)NCCCC[C@H](NC(=O)N[C@@H](CCC(=O)O)C(=O)O)C(=O)O)cc2)C(=O)N[C@@H](CCCCNC(=O)CC[C@H](NC(=O)c2ccc(NCc4cnc5[nH]c(N)nc(=O)c5n4)cc2)C(=O)O)C(N)=O)C1=O)CC3` (stereo partly drawn) [CR19428]: the IC50 (commonly the point on the concentration scale where inhibition reaches its midpoint) in test [3] was 906 nM; in test [7], 1620 nM; in test [8], 1070 nM. For the same compound, the “anti-tumor growth effect (in words)” value in test [4] (SCLC-21H CDX), in test [5] (CALU-3 CDX) and in test [6] (SPC-A1 CDX) was “obvious anti-tumor growth effect” each time. Moreover, the TGI (commonly the reduction of tumour growth relative to the control group) in test [4] (SCLC-21H, 50 mg/kg q2/w * 3) stood at 66%; in test [5] (CALU-3, 50 mg/kg q2/w * 3), 51%; in test [6] (50 mg/kg q2/w * 3), 75%; in test [6] (100 mg/kg q2/w * 3) it was 91%.
